According to patent US6881741B2 (ViroChem Pharma Inc., priority 2001, dated 2005):

Molecular target: recombinant HCV NS5B (HCV RNA-dependent RNA polymerase) (Hepatitis C virus genotype 1b, UniProt P26663)
Experiment: biochemical
Conditions: HCV polymerase activity, list of compounds of Example 27; read-out: IC50 (polymerase activity)

recombinant HCV NS5B (HCV RNA-dependent RNA polymerase), sequence (P26663 2420-3010 limits assumed): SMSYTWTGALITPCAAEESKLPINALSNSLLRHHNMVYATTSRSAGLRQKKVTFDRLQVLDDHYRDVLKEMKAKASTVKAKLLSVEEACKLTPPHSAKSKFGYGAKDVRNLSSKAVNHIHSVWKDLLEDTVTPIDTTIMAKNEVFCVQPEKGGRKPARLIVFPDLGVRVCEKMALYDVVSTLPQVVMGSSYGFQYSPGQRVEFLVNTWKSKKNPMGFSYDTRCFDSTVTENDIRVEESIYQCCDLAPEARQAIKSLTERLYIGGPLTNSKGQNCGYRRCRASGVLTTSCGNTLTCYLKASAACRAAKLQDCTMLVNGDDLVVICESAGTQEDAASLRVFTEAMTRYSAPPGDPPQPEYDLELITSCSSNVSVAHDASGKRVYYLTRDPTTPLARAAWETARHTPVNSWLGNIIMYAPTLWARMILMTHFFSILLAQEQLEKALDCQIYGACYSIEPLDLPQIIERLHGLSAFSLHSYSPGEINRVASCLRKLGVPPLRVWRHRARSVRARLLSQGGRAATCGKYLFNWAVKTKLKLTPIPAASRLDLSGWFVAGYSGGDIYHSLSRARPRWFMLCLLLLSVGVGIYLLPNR

Row | Compound | IC50 [µM]
1 | CC1CCC(C(=O)N(c2cc(-c3ccccc3)sc2C(=O)O)C(C)C)C(=O)C1 (stereo not drawn) [Compound 513, 3-[ISOPROPYL-(4-METHYL-2-OXO- CYCLOHEXANECARBONYL)-AMINO]-5- PHENYL-THIOPHENE-2-CARBOXYLIC ACID] | < 5
2 | CC(=O)c1ccc(-c2cc(N(C(=O)C3CCC(C)CC3)C(C)C)c(C(=O)O)s2)cc1 (stereo not drawn) [Compound 460, 5-(4-ACETYL-PHENYL)-3-[ISOPROPYL-(4- METHYL-CYCLOHEXANECARBONYL)- AMINO]-THIOPHENE-2-CARBOXYLIC ACID] | < 5
3 | CC(C)CC(=O)N(Cc1ccc(Cl)cc1)c1cc(-c2ccccc2)sc1C(=O)O [Compound 458, 3-[(4-CHLORO-BENZYL)-(3-METHYL- BUTYRYL)-AMINO]-5-PHENYL- THIOPHENE-2-CARBOXYLIC ACID] | 5 to 20
4 | CCC(=O)N(Cc1cccc(Cl)c1)c1cc(-c2ccccc2)sc1C(=O)O [Compound 477, 3-[(3-CHLORO-BENZYL)-PROPIONYL- AMINO]-5-PHENYL-THIOPHENE-2- CARBOXYLIC ACID] | 5 to 20
5 | CC(C)CC(=O)N(Cc1ccc([N+](=O)[O-])cc1)c1cc(-c2ccccc2)sc1C(=O)O [Compound 419, 3-[(3-METHYL-BUTYRYL)-(4-NITRO- BENZYL)-AMINO]-5-PHENYL-THIOPHENE- 2-CARBOXYLIC ACID] | < 5
6 | O=C(O)c1sc(-c2ccccc2)cc1N(CC1CCNCC1)C(=O)c1ccccc1Cl [Compound 520, 3-[(2-CHLORO-BENZOYL)-PIPERIDIN-4- YLMETHYL-AMINO]-5-PHENYL- THIOPHENE-2-CARBOXYLIC ACID] | < 5
7 | Cc1ccc(C(=O)N(c2cc(-c3ccccc3)sc2C(=O)O)C(C)C)c(/C=N/O)c1 [Compound 505, 3-{[2-(HYDROXYIMINO-METHYL)-4- METHYL-BENZOYL]-ISOPROPYL-AMINO)-5- PHENYL-THIOPHENE-2-CARBOXYLIC ACID] | 5 to 20
8 | CC1CCC(C(=O)N(CC2CCNCC2)c2cc(-c3ccccc3)sc2C(=O)O)CC1 (stereo not drawn) [Compound 544, 4-([(2-CARBOXY-5-PHENYL-THIOPHEN-3- YL)-(4-METHYL- CYCLOHEXANECARBONYL)-AMINO]- METHYL)-PIPERIDINIUM; TRIFLUORO- ACETATE] | < 5
9 | CCC(=O)N(Cc1ccccc1C)c1cc(-c2ccccc2)sc1C(=O)O [Compound 427, 3-[(2-METHYL-BENZYL)-PROPIONYL- AMINO]-5-PHENYL-THIOPHENE-2- CARBOXYLIC ACID] | 5 to 20
10 | CC1CCC(C(=O)N(c2cc(-c3ccc(Cl)cc3)sc2C(=O)O)C(C)C)CC1 (stereo not drawn) [Compound 570, 5-(4-CHLORO-PHENYL)-3-[ISOPROPYL-(4- METHYL-CYCLOHEXANECARBONYL)- AMINO]-THIOPHENE-2-CARBOXYLIC ACID] | < 5
11 | CC(C)N(C(=O)c1cc(-c2ccccc2)sc1C(=O)O)c1ccc(Cl)cc1Cl [Compound 583, 3-[(2,4-DICHLORO-PHENYL)-ISOPROPYL- CARBAMOYL]-5-PHENYL-THIOPHENE-2- CARBOXYLIC ACID] | < 5
12 | O=C(O)c1sc(-c2ccccc2)cc1N(Cc1cccc(Cl)c1)C(=O)C1CCC1 [Compound 481, 3-[(3-CHLORO-BENZYL)- CYCLOBUTANECARBONYL-AMINO]-5- PHENYL-THIOPHENE-2-CARBOXYLIC ACID] | 5 to 20
13 | CC[NH+](CC)c1ncc(CN(C(=O)c2ccc(Cl)cc2Cl)c2cc(-c3ccccc3)sc2C(=O)O)s1 [Compound 558, (5-{[[2-CARBOXY-5-PHENYL-THIOPHEN-3- YL)-(2,4-DICHLORO-BENZOYL)-AMINO]- METHYL}-THIAZOL-2-YL)-DIETHYL- AMMONIUM; CHLORIDE] | < 5
14 | CCC(=O)N(Cc1ccc(C(C)(C)C)cc1)c1cc(-c2ccccc2)sc1C(=O)O [Compound 417, 3-[(4-TERT-BUTYL-BENZYL)-PROPIONYL- AMINO]-5-PHENYL-THIOPHENE-2- CARBOXYLIC ACID] | 5 to 20
15 | Cc1cccc(-c2cc(N(C(=O)C3CCC(C)CC3)C(C)C)c(C(=O)O)s2)c1 (stereo not drawn) [Compound 448, 3-[ISOPROPYL-(4-METHYL- CYCLOHEXANECARBONYL)-AMINO]-5- #M!-TOLYL-THIOPHENE-2-CARBOXYLIC ACID] | < 5

Same assay, conditions: related polymerase activity (Example 27 list); read-out: IC50

Row | Compound | IC50 [µM]
16 | Cc1ccc(S(=O)(=O)Nc2cc(C(C)(C)C)sc2C(=O)O)c(C)c1 [Compound 315, 5-#TERT!-BUTYL-3-(2,4-DIMETHYL- BENZENESULFONYLAMINO)- THIOPHENE-2-CARBOXYLIC ACID] | 5 to 20
17 | C=CCN(C(=O)Cc1ccc(F)cc1Cl)c1cc(-c2ccccc2)sc1C(=O)O [Compound 349, 3-{ALLYL-[2-(2-CHLORO-4-FLUORO- PHENYL)-ACETYL]-AMINO}-5-PHENYL- THIOPHENE-2-CARBOXYLIC ACID] | 5 to 20
18 | Cc1c(-c2ccccc2)sc(C(=O)O)c1N(C(=O)c1ccc(Cl)cc1Cl)C(C)C [Compound 314, 3-[(2,4-DICHLORO-BENZOYL)- ISOPROPYL-AMINO]-4-METHYL-5- PHENYL-THIOPHENE-2-CARBOXYLIC ACID] | 5 to 20
19 | CCOC(=O)c1cccc(-c2cc(NS(=O)(=O)c3ccccc3C)c(C(=O)O)s2)c1 [Compound 121, 5-(3-ETHOXYCARBONYL-PHENYL)-3-(TOLUENE-2-SULFONYLAMINO)-THIOPHENE-2-CARBOXYLIC ACID] | 5 to 20
20 | CN(C(=O)c1ccccc1Br)c1cc(-c2ccccc2)sc1C(=O)O [Compound 187, 3-[(2-BROMO-BENZOYL)-METHYL-AMINO]-5-PHENYL-THIOPHENE-2-CARBOXYLIC ACID] | 5 to 20
21 | C=CCN(C(=O)Cc1ccc(F)cc1F)c1cc(-c2ccccc2)sc1C(=O)O [Compound 351, 3-{ALLYL-[2-(2,4-DIFLUORO-PHENYL)- ACETYL]-AMINO}-5-PHENYL-THIOPHENE- 2-CARBOXYLIC ACID] | 5 to 20
22 | Cc1ccccc1S(=O)(=O)Nc1cc(-c2ccc(C#N)cc2)sc1C(=O)O [Compound 83, 5-(4-CYANO-PHENYL)-3-(TOLUENE-2-SULFONYLAMINO)-THIOPHENE-2-CARBOXYLIC ACID] | < 5
23 | CC(C)N(C(=O)c1ccc(C(F)(F)F)cc1)c1cc(-c2ccccc2)sc1C(=O)O [Compound 243, 3-[ISOPROPYL-(4-TRIFLUOROMETHYL-BENZOYL)-AMINO]-5-PHENYL-THIOPHENE-2-CARBOXYLIC ACID] | < 5
24 | CC(C)N(C(=O)c1ccc(Cl)nc1Cl)c1cc(-c2ccccc2)sc1C(=O)O [Compound 250, 3-[(2,6-DICHLORO-PYRIDINE-3-CARBONYL)-ISOPROPYL-AMINO]-5-PHENYL-THIOPHENE-2-CARBOXYLIC ACID] | 5 to 20
25 | O=C(O)c1sc(-c2ccccc2)cc1NS(=O)(=O)c1ccc(-c2csnn2)s1 [Compound 46, 5-PHENYL-3-(5-[1,2,3]THIADIAZOL-4-YL-THIOPHENE-2-SULFONYLAMINO)-THIOPHENE-2-CARBOXYLIC ACID] | 5 to 20
26 | CC(=O)Oc1cc(C)ccc1C(=O)N(c1cc(-c2ccccc2)sc1C(=O)O)C(C)C [Compound 377, 3-[(2-ACETOXY-4-METHYL-BENZOYL)- ISOPROPYL-AMINO]-5-PHENYL- THIOPHENE-2-CARBOXYLIC ACID] | 5 to 20
27 | CN(C(=O)c1ccc(Cl)nc1Cl)c1cc(-c2ccccc2)sc1C(=O)O [Compound 245, 3-[(2,6-DICHLORO-PYRIDINE-3-CARBONYL)-METHYL-AMINO]-5-PHENYL-THIOPHENE-2-CARBOXYLIC ACID] | 5 to 20
28 | Cc1ccccc1S(=O)(=O)Nc1cc(-c2ccc(F)c(F)c2)sc1C(=O)O [Compound 70, 5-(3,4-DIFLUORO-PHENYL)-3-(TOLUENE-2-SULFONYLAMINO)-THIOPHENE-2-CARBOXYLIC ACID] | < 5
29 | COc1ccc(S(=O)(=O)Nc2cc(-c3ccccc3)sc2C(=O)O)c([N+](=O)[O-])c1 [Compound 152, 3-(4-METHOXY-2-NITRO-BENZENESULFONYLAMINO)-5-PHENYL-THIOPHENE-2-CARBOXYLIC ACID] | 5 to 20
30 | Cc1ccc(C(=O)N(Cc2ccccc2C)c2cc(-c3ccccc3)sc2C(=O)O)cc1 [Compound 343, 3-[(4-METHYL-BENZOYL)-(2-METHYL- BENZYL)-AMINO]-5-PHENYL-THIOPHENE- 2-CARBOXYLIC ACID] | < 5
31 | Cc1cc(C)c(C(=O)N(c2cc(-c3ccccc3)sc2C(=O)O)C(C)C)c(C)c1 [Compound 324, 3-[ISOPROPYL-(2,4,6-TRIMETHYL- BENZOYL)-AMINO]-5-PHENYL- THIOPHENE-2-CARBOXYLIC ACID] | 5 to 20
32 | CCN(C(=O)c1ccc(C)cc1)c1cc(-c2ccccc2)sc1C(=O)O [Compound 185, 3-[ETHYL-(4-METHYL-BENZOYL)-AMINO]-5-PHENYL-THIOPHENE-2-CARBOXYLIC ACID] | < 5
33 | Cc1ccccc1S(=O)(=O)Nc1cc(-c2ccc(C(N)=O)cc2)sc1C(=O)O [Compound 282, 5-(4-CARBAMOYL-PHENYL)-3-(TOLUENE-2-SULFONYLAMINO)-THIOPHENE-2-CARBOXYLIC ACID] | 5 to 20
34 | Cc1ccccc1C(=O)N(C)c1cc(-c2ccccc2)sc1C(=O)O [Compound 97, 3-[METHYL-(2-METHYL-BENZOYL)-AMINO]-5-PHENYL-THIOPHENE-2-CARBOXYLIC ACID] | > 20
35 | Cc1ccccc1S(=O)(=O)Nc1cc(-c2ccc(C(=O)O)cc2)sc1C(=O)O [Compound 248, 5-(4-CARBOXY-PHENYL)-3-(TOLUENE-2-SULFONYLAMINO)-THIOPHENE-2-CARBOXYLIC ACID] | < 5
36 | Cc1ccccc1S(=O)(=O)Nc1cc(-c2ccc(Cl)cn2)sc1C(=O)O [Compound 191, 5-(5-CHLORO-PYRIDIN-2-YL)-3-(TOLUENE-2-SULFONYLAMINO)-THIOPHENE-2-CARBOXYLIC ACID] | < 5
37 | Cc1ccccc1S(=O)(=O)Nc1cc(-c2ccc3c(c2)OCO3)sc1C(=O)O [Compound 202, 5-BENZO[1,3]DIOXOL-5-YL-3-(TOLUENE-2-SULFONYLAMINO)-THIOPHENE-2-CARBOXYLIC ACID] | < 5
38 | Cc1ccc(C(=O)N(C)c2cc(-c3cccc(F)c3)sc2C(=O)O)cc1 [Compound 213, 5-(3-FLUORO-PHENYL)-3-[METHYL-(4-METHYL-BENZOYL)-AMINO]-THIOPHENE-2-CARBOXYLIC ACID] | < 5
39 | CN(C(=O)c1ccc(C(F)(F)F)c(F)c1F)c1cc(-c2ccccc2)sc1C(=O)O [Compound 278, 3-[(2,3-DIFLUORO-4-TRIFLUOROMETHYL-BENZOYL)-METHYL-AMINO]-5-PHENYL-THIOPHENE-2-CARBOXYLIC ACID] | 5 to 20
